Data: patent US6174909A, “4-aminotetrahydrobenzisoxazole or -isothiazole compounds” (H. Lundbeck A/S, priority 1995, dated 2001)
Where a name gives a salt, the structure may show the parent alone.

Columns and labels:
[1] = test system: GABA uptake in synaptosomes; test: GABA uptake inhibition in synaptosomes (overall, i.e. neuronal and glial); assay type: biochemical; details: values marked * = Preliminary Data
Procedure: The inhibition of GABA Uptake was performed by the method described by Falch et. al, Drug Dev. Res., 1990,21, 169-188. By this method the overall, i.e. neuronal and glial, inhibition of GABA uptake is determined.

[2] = test system: isoniazide induced convulsions in mice; test: Isoniazid antagonism (antagonism of isoniazide induced convulsions in mice); assay type: in vivo, mice (male NMRI/BOM); details: Mus musculus, sc, 30 min before 300 mg isoniazide s.c., protected = no convulsions within 60 min, log probit analysis
Procedure: The test is a test for antagonism of isoniazide induced convulsions in mice.
The test substance is given s.c. to mice (male NMRI/BOM, body weight 20-25 g) and 30 min later 300 mg isoniazide is given s.c. Five mice are used per dose and a control group only receiving isoniazide is included. This dose of isoniazide induces intermittent tonic seizures.
The animals are placed individually in Macrolon type II cages and the time when convulsions first occur is recorded. The experiment is stopped after 90 min. The animals that have not had convulsions within 60 min. are recorded as + (protected). The results, i.e. the number of protected mice pr number of tested mice are stated in fractions as follows: 0/5, 1/5 . . . , 5/5.

Row | SMILES | IC50 [1] [µM] | ED50 [2] [µmol/kg] | IC50 ([1]; hydrobromide) [µM]
1 | Oc1noc2c1C(NCc1ccccc1)CCC2 (racemic) [Compound 41a, (R,S)-3-Hydroxy-4-benzylamino-4,5,6,7-tetrahydro-1,2-benzisoxazole hydrobromide] | 140 | 77 | 
2 | C=CCNC1CCCc2onc(O)c21 (racemic) [Compound 8f, (R,S)-4-(2-propen-1-ylamino)-3-hydroxy-4,5,6,7-tetrahydro-1,2-benzisoxazole, oxalate] | 100 | 320 | 
3 | CN(CCC=C(c1ccccc1)c1ccccc1)C1CCCc2onc(O)c21 (racemic) [Compound 20a, (R,S)-3-Hydroxy-4-[N-(4,4-diphenyl-3-butenyl)methylamino]4,5,6,7-tetrahydro-1,2-benzisoxazole, hydrochloride] | 0.37 | 97 | 
4 | CN(CCOC(c1ccc(F)cc1)c1ccc(F)cc1)C1CCCc2onc(O)c21 (racemic) [Compound 16a, (R,S)-4-[N-[bis(4-fluorophenyl)methyl-2-oxyethyl]-N-methylamino]-3-hydroxy-4,5,6,7-tetrahydro-1,2-benzisoxazole, sodium salt] | 4.5 | 55 | 
5 | Cc1ccccc1C(=CCCNC1CCCc2onc(O)c21)c1ccccc1C (racemic) [Compound 8p, (R,S) -4-[N-1,1-Di-(2-tolyl)but-1-en-4-yl]amino]-3-hydroxy-4,5,6,7-tetrahydro-1,2-benzisoxazole, hydrobromide] |  | 30 | 
6 | Oc1noc2c1C(N1CCCC1)CCC2 (racemic) [Compound 8d, (R,S)-3-Hydroxy-4-(1-pyrrolidinyl)-4,5,6,7-tetrahydro-1,2-benzisoxazole, hydrobromide] | 210 | > 140 | 
7 | Oc1noc2c1C(NCCC=C(c1ccccc1)c1ccccc1)CCC2 (racemic) [Compound 20b, (R,S)-3-Hydroxy-4-[N-(4,4-diphenyl-3-butenyl)amino]-4,5,6,7-tetrahydro-1,2-benzioxazole hydrochloride hydrate] | 0.14 |  | 
8 | OCCNC1CCCc2onc(O)c21 (racemic) [Compound 9a, (R,S)-4-(2-Hydroxyethylamino)-3-hydroxy-4,5,6,7-tetrahydro-1,2-benzisoxazole, hydrobromide] | 180 | > 140 | 
9 | NC1CCCc2snc(O)c21 (racemic) [Compound 26a, (R,S)-4-Amino-3-hydroxy-4,5,6,7-tetrahydro-1,2-benzisothiazole, hydrobromide] | > 300 |  | 
10 | CNC1CCCc2onc(O)c21 (racemic) [Compound 8a, (R,S)-3-Hydroxy-4-methylamino-4,5,6,7-tetrahydro-1,2-benzisoxazole, hydrobromide] | 65 | > 320 | 
11 | CNC1CCCc2onc(OCOC(=O)C(C)(C)C)c21 (racemic) [Compound 14a, (R,S)-4-methylamino-3-pivaloyloxymethyloxy-4,5,6,7-tetrahydro-1,2-benzisoxazole, hemioxalate] | > 300 | 86 | 
12 | Oc1noc2c1C(NCCCC(c1ccc(F)cc1)c1ccc(F)cc1)CCC2 (racemic) [Compound 8b, (R,S)-4-[4,4-Bis(4-fluorophenyl)butan-1-ylamino]-3-hydroxy-4,5,6,7-tetrahydro-1,2-benzisoxazole, hydrobromide] | 0.24 | 110 | 
13 | CN(C)C1CCCc2onc(O)c21 (racemic) [Compound 18a, (R,S)-4-Dimethylamino-3-hydroxy-4,5,6,7-tetrahydro-1,2-benzisoxazole, hydrobromide] | 280 |  | 
14 | CN(CCCC(c1ccc(F)cc1)c1ccc(F)cc1)C1CCCc2onc(O)c21 (racemic) [Compound 11a, (R,S)-^4-[N-[4,4-Bis(4-fluorophenyl)butan-1-yi]-N-methylamino]-3-hydroxy-4,5,6,7-tetrahydro-1,2-benzisoxazole, hydrobromide] | 0.73 | 67 | 
15 | Cc1ccccc1C(CCCNC1CCCc2onc(O)c21)c1ccccc1C (racemic) [Compound 8n, (R,S)-4-[N-[4,4-Di-(2-tolyl)butan-1-yl]amino]-3-hydroxy-4,5,6,7-tetrahydro-1,2-benzisoxazole, hydrobromide] |  | 44 | 
16 | Oc1noc2c1C(NCC(c1ccccc1)c1ccccc1)CCC2 (racemic) [Compound 41b, (R,S)-3-Hydroxy-4-(2,2-diphenylethylamino)-4,5,6,7-tetrahydro-1,2-benzisoxazole hydrobromide] | 22 | > 190 | 
17 | N[C@H]1CCCc2onc(O)c21 [Compound 6a, (+)-4-amino-3-hydroxy-4,5,6,7-tetrahydro-1,2-benzisoxazole, hydrochloride] | > 300 |  | 

Row | SMILES | IC50 [1] [µM] | ED50 [2] [µmol/kg] | IC50 ([1]; hydrobromide) [µM]
18 | CNC1CCCc2on(COC(=O)C(C)(C)C)c(=O)c21 (racemic) [Compound 14b, (R,S)-4-methylamino-2-pivaloyloxym ethyl-4,5,6,7-tetrahydro-1,2-benz isoxazol-3-one, hemioxalate] | > 300 | 220 | 
19 | CN(C(=O)Oc1ccccc1)C1CCCc2onc(O)c21 (racemic) [Compound 28a, (R,S)-3-Hydroxy-N-methyl-N-(4-phenyloxycarbonyl)amino-4,5,6,7-tetrahydro-1,2-benzisoxazole] |  | 200 | 
20 | Cc1ccsc1C(=CCCNC1CCCc2onc(O)c21)c1sccc1C (racemic) [Compound 20c, (R,S)-3-Hydroxy-4-[N-(4,4-bis[3-methylthien-2-yl]-3-butenyl)amino]-4,5,6,7-tetrahydro-1,2-benzisoxazole hydrochloride] | 0.17 |  | 
21 | CN(CCOC(c1ccc(Cl)cc1)c1ccc(Cl)cc1)C1CCCc2onc(O)c21 (racemic) [Compound 16b, (R,S)-4-[N -[bis (4-chlorophenyl)methyl-2-oxyethyl]-N -methylamino]-3-hydroxy-4,5,6,7-tetrahydro-1,2-benzisoxazole, sodium salt] | 4.9 | 81 | 
22 | CNC1CCCc2onc(O)c21 (single isomer, unassigned; (-)) [Compound 6d, (-)-3-hydroxy-4-methylamino-4,5,6,7-tetrahydro-1,2-benzisoxazole, hydrobromide] |  |  | > 300
23 | Cc1ccccc1C(=CCCN(C)C1CCCc2onc(O)c21)c1ccccc1C (racemic) [Compound 8o, (R,S)-4-[N-[1,1-Di-(2-tolyl)but-1-en-4-yl]methylamino]-3-hydroxy-4,5,6,7-tetrahydro-1,2-benzisoxazole] |  | 50 | 
24 | CN(CCCC(c1ccccc1)c1ccccc1)C1CCCc2onc(O)c21 (racemic) [Compound 11b, (R,S)-4-[-N -(4,4-Diphenylbut-1-yl)-N-methylamino]-3-hydroxy-4,5,6,7-tetrahydro-1,2-benzisoxazole, hydrobromide] | 0.41 | 640 | 
25 | Cc1ccsc1C(=CCCN(C)C1CCCc2onc(O)c21)c1sccc1C (racemic) [Compound 16d, (R,S)-4-[N-(4,4-bis[3-methylthien-2-yl]-3-butenyl)-N-methylamino]-3-hydroxy-4,5,6,7-tetrahydro-1,2-benzisoxazole hydrochloride] | 0.31 | 63 | 
26 | Oc1noc2c1C(NCCCCc1ccccc1)CCC2 (racemic) [Compound 8h, (R,S)-4-(4-phenylbut-1-ylamino]-3-hydroxy-4,5,6,7-tetrahydro-1,2-benzisoxazole, hydrobromide] | 4.8 | 150 | 
27 | Oc1noc2c1C(NCCCN1c3ccccc3Sc3ccccc31)CCC2 (racemic) [Compound 8l, (R,S)-4-[N-3-(Phenothiazin-10-yl)propane-1-yl]amino]-3-hydroxy4,5,6,7-tetrahydro-1,2-benzisoxazole, hydrobromide] |  | 71 | 
28 | N[C@@H]1CCCc2onc(O)c21 [Compound 6b, (-)-(R)-4-amino-3-hydroxy-4,5,6,7-tetrahydro-1,2-benzisoxazole, hydrochloride] | 120 |  | 
29 | CNC1CCCc2onc(OCOC(=O)c3ccccc3)c21 (racemic) [Compound 31a, (R,S)-3-Benzoyloxymethyloxy-4-methylamino-4,5,6,7-tetrahydro-1,2-benzisoxazole, hemioxalate] |  | 210 | 
30 | CN(CCC=C1c2ccccc2CCc2ccccc21)C1CCCc2onc(O)c21 (racemic) [Compound 8k, (R,S)-4-[N-[3-(10,11 1-ihydrodibenzo[a,d]cyclohept-5-ylidene)propane-1-yl]methylamino]-3-hydroxy-4,5,6,7-tetrahydro-1,2-benzisoxazole, hydrobromide] |  | 68 | 
31 | Oc1noc2c1C(NCCC=C1c3ccccc3CCc3ccccc31)CCC2 (racemic) [Compound 8j, (R,S)-4-[N-[3-(10,11-dihydrodibenzo[a,d]cyclohept-5-ylidene)propane-1-yl]amino]-3-hydroxy-4,5,6,7-tetrahydro-1,2-benzisoxazole, hydrobromide] | 1.1 |  | 
32 | Cc1ccccc1C(CCCN(C)C1CCCc2onc(O)c21)c1ccccc1C (racemic) [Compound 8m, (R,S)-4-[N-[4,4-Di-(2-tolyl)butan-1-yl]-rmethylamino]-3-hydroxy-4,5,6,7-tetrahydro-1,2-benzisoxazole, hydrobromide] |  | 27 | 
33 | CNC1CCCc2onc(OCOC(=O)c3c(F)cccc3F)c21 (racemic) [Compound 31c, (R,S)-4-Methylamino-3-(2,6-difluorobenzoyloxymethyloxy)-4,5,6,7-tetrahydro-1,2-benzisoxazole, hemioxalate] |  | 210 | 
